Laboratory results published in patent US20260365633A1, “Novel PEM Structures for SBX” (Roche Sequencing Solutions, Inc., priority 2023, published 2026).

Target: T1, C4760 DNA polymerase (a variant of DPO4) (Saccharolobus solfataricus, UniProt Q97W02, A155G/A42V/D156R/D292Y/D294N/E291S/E324K/E325K/E327K/E63R/E79L/G187P/G299W/I153V/I189F/I248T/I295S/K152A/K317Q/K321Q/K56Y/K78D/L293W/M76W/N188Y/P184Q/Q82W/Q83G/R300S/S297Y/S86E/T290K/T301W/V289W/V296Q)
T1 construct: Eco or Kod SSB in reaction as additive
T1 sequence (Q97W02 1-340 A155G/A42V/D156R/D292Y/D294N/E291S/E324K/E325K/E327K/E63R/E79L/G187P/G299W/I153V/I189F/I248T/I295S/K152A/K317Q/K321Q/K56Y/K78D/L293W/M76W/N188Y/P184Q/Q82W/Q83G/R300S/S297Y/S86E/T290K/T301W/V289W/V296Q): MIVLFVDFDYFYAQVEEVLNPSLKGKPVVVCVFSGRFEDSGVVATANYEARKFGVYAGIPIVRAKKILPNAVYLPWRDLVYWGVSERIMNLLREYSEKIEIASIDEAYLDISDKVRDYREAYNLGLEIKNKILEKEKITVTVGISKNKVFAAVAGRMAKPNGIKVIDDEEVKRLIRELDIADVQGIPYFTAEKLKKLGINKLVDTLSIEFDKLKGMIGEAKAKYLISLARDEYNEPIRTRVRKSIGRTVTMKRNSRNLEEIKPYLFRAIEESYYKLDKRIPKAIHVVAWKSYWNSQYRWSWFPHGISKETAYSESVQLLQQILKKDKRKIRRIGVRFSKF
Assay: Primer extension on 45mer RNA template (HIV2) with C4760 polymerase, gel
Format: biochemical, Sulfolobus solfataricus
Conditions: 2 Mm PEM, 45mer RNA template derived from HIV2, Kod SSB, 30 minutes at 37 °C
Method: To begin to investigate the potential of PEMs to enhance diverse polymerase reactions, the ability of PEMS to enable DNA polymerase to utilize RNA as a template was tested. An initial screen of several compounds set forth in Table 1 was conducted using a 45mer RNA template derived from the HIV2 genome sequence. Primer extension reactions included the following reagents: 50 Mm TrisCl, 200 Mm NH4OAc, 20% PEG8K, 5% NMS, 0.6 nmol PP-60.20, 0.6 Mm MnCl2, 2 μg Kod single-strand binding protein (SSB), 1 M urea, 50 pmol each XNTP, 0.5 pmol template, 0.5 pmol [COMPOUND LEFT OUT] primer, 1.2 μg purified recombinant C4760 DNA polymerase (a variant of DPO4, see SEQ ID NO: 2), and 2 Mm PEM. 10 μL primer extension reactions were run for 30 minutes at 37 °C and reaction products were analyzed by gel electrophoresis.

Question: For `CCN(CC)C(=O)c1cc(-c2cn(-c3ccc(C(=O)O)c(O)c3)nn2)nc(-c2cn(-c3ccc(C(=O)O)c(O)c3)nn2)c1` [Compound 49, 4,4′-((4-(diethylcarbamoyl)pyridine-2,6-diyl)bis(1H-1,2,3-triazole-4,1-diyl))bis(2-hydroxybenzoic acid)], which “PEM activity on RNA template” value is on record?
Answer: The value was “display PEM activity on an RNA template”.

Question: `O=C(O)c1ccc(-n2cc(-c3cc(C(=O)N4CCOCC4)cc(-c4cn(-c5ccc(C(=O)O)c(O)c5)nn4)n3)nn2)cc1O` [Compound 51, 4,4′-((4-(morpholine-4-carbonyl)pyridine-2,6-diyl)bis(1H-1,2,3-triazole-4,1-diyl))bis(2-hydroxybenzoic acid)] was tested. Which “PEM activity on RNA template” value did it give?
Answer: The value was “display PEM activity on an RNA template”.

Question: With `CCNC(=O)c1cc(-c2cn(-c3ccc(C(=O)O)c(C(F)(F)F)c3)nn2)nc(-c2cn(-c3ccc(C(=O)O)c(C(F)(F)F)c3)nn2)c1` [Compound 73, 4,4′-((4-(ethylcarbamoyl)pyridine-2,6-diyl)bis(1H-1,2,3-triazole-4,1-diyl))bis(2-(trifluoromethyl)benzoic acid)] as the molecule, how does the “PEM activity on RNA template” value read?
Answer: Its value is “display PEM activity on an RNA template”.

Question: With `CCNC(=O)c1cc(-c2cn(-c3ccc(C(F)(F)F)c(C(=O)O)c3)nn2)nc(-c2cn(-c3ccc(C(F)(F)F)c(C(=O)O)c3)nn2)c1` [Compound 75, 5,5′-((4-(ethylcarbamoyl)pyridine-2,6-diyl)bis(1H-1,2,3-triazole-4,1-diyl))bis(2-(trifluoromethyl)benzoic acid)] as the molecule, how does the “PEM activity on RNA template” value read?
Answer: The value was “display PEM activity on an RNA template”.

Question: Which “PEM activity on RNA template” value does the source give for `CCNC(=O)c1cc(-c2cn(-c3ccc(C(=O)O)c(F)c3)nn2)nc(-c2cn(-c3ccc(C(=O)O)c(F)c3)nn2)c1` [Compound 76, 4,4′-((4-(ethylcarbamoyl)pyridine-2,6-diyl)bis(1H-1,2,3-triazole-4,1-diyl))bis(2-fluorobenzoic acid)] here?
Answer: Its value is “display PEM activity on an RNA template”.

Question: With `CCNC(=O)c1cc(-c2cn(-c3cc(C(=O)O)cc(C(F)(F)F)c3)nn2)nc(-c2cn(-c3cc(C(=O)O)cc(C(F)(F)F)c3)nn2)c1` [Compound 93, 5,5′-((4-(ethylcarbamoyl)pyridine-2,6-diyl)bis(1H-1,2,3-triazole-4,1-diyl))bis(3-(trifluoromethyl)benzoic acid)] as the molecule, how does the “PEM activity on RNA template” value read?
Answer: The value was “display PEM activity on an RNA template”.

Question: For `O=C(NCCO)c1cc(-c2cn(-c3ccc(C(=O)O)c(C(F)(F)F)c3)nn2)nc(-c2cn(-c3ccc(C(=O)O)c(C(F)(F)F)c3)nn2)c1` [Compound 105, 4,4′-((4-((2-hydroxyethyl)carbamoyl)pyridine-2,6-diyl)bis(1H-1,2,3-triazole-4,1-diyl))bis(2-(trifluoromethyl)benzoic acid)], which “PEM activity on RNA template” value is on record?
Answer: The value was “display PEM activity on an RNA template”.

Question: `CCNC(=O)c1cc(-c2cn(-c3ccc(C(=O)O)c([N+](=O)[O-])c3)nn2)nc(-c2cn(-c3ccc(C(=O)O)c([N+](=O)[O-])c3)nn2)c1` [Compound 106, 4,4′-((4-(ethylcarbamoyl)pyridine-2,6-diyl)bis(1H-1,2,3-triazole-4,1-diyl))bis(2-nitrobenzoic acid)] was tested. Which “PEM activity on RNA template” value did it give?
Answer: Its value is “display PEM activity on an RNA template”.

Question: `CCNC(=O)c1cc(-c2cn(-c3ccc(C(=O)NCC(=O)O)c(C(F)(F)F)c3)nn2)nc(-c2cn(-c3ccc(C(=O)NCC(=O)O)c(C(F)(F)F)c3)nn2)c1` [Compound 110, 2,2′-((4,4′-((4-(ethylcarbamoyl)pyridine-2,6-diyl)bis(1H-1,2,3-triazole-4,1-diyl))bis(2-(trifluoromethyl)benzoyl))bis(azanediyl))diacetic acid] was tested. Which “PEM activity on RNA template” value did it give?
Answer: The value was “display PEM activity on an RNA template”.

Question: With `CCNC(=O)c1cc(-n2cc(-c3ccc(C(=O)O)c(C(F)(F)F)c3)nn2)cc(-n2cc(-c3ccc(C(=O)O)c(C(F)(F)F)c3)nn2)c1` [Compound 116, 4,4′-((5-(ethylcarbamoyl)-1,3-phenylene)bis(1H-1,2,3-triazole-1,4-diyl))bis(2-(trifluoromethyl)benzoic acid)] as the molecule, how does the “PEM activity on RNA template” value read?
Answer: The value was “display PEM activity on an RNA template”.
